Results taken from PubChem BioAssay AID1996.
In brackets after ≈: the same amount, converted by molar mass.

Details: buffer; pH 7.4; 200.0 µM
Work on `O=[N+]([O-])c1cccc(NC(=S)N2CCN(c3ccccn3)CC2)c1` yielded a solubility kinetic of 1.2 µg/mL (≈ 3.49 µM). For `Cc1cc(C(F)F)nn1CC(=O)NC1CCCC1`, the solubility kinetic was over 38.6 µg/mL. For `N/C(=N\[N+](=O)[O-])N1CCN(C(=O)OC2CCCC2)CC1`, the solubility kinetic was over 42.8 µg/mL. With `O=c1cc([O-])n(Cc2ccc(F)cc2)c(=O)[nH]1.[NH4+]` the solubility kinetic was over 38 µg/mL. Work on `O=C(CN1C(=O)c2ccccc2S1(=O)=O)Nc1ccc([N+](=O)[O-])cc1` yielded a solubility kinetic of 6 µg/mL (≈ 16.6 µM). Work on `Clc1ccc2nc(-c3ccc4c(c3)OCO4)cn2c1` yielded a solubility kinetic of under 0.3 µg/mL. `Cc1ccc(OCCn2cc(/C=C/C(=O)O)c3ccccc32)cc1` showed a solubility kinetic of over 48.2 µg/mL. `O=C(COc1ccc(Cl)cc1Cl)NCC1(N2CCOCC2)CCCCC1` gave a solubility kinetic of 1.9 µg/mL (≈ 4.73 µM). Molecule `O=C(CSc1nccc(=O)[nH]1)Nc1ccc2c(c1)OCCO2` has a solubility kinetic of 40.8 µg/mL (≈ 128 µM). With `OC1=C(O)c2nc3cc(C(F)(F)F)ccc3nc21` the solubility kinetic was over 38.1 µg/mL. `Cc1cccc(NC(=O)CCS(=O)(=O)c2ccc(Cl)cc2)c1` showed a solubility kinetic of 5.5 µg/mL (≈ 16.3 µM). With `O=C1CN(S(=O)(=O)c2cccc(C(=O)O)c2)c2ccccc2N1` the solubility kinetic was over 49.8 µg/mL. Work on `O=S(=O)(c1ccccc1)N(CC1CO1)c1ccccc1` (configuration not stated) yielded a solubility kinetic of over 43.4 µg/mL. Work on `CC(=O)c1ccc(OCCOc2ccc([N+](=O)[O-])cc2)cc1` yielded a solubility kinetic of 3.7 µg/mL (≈ 12.3 µM). Work on `O=C(CCOc1ccc(F)cc1)Nc1nccs1` yielded a solubility kinetic of 5.6 µg/mL (≈ 21 µM). Work on `CCc1nnc(NC(=O)C2(C)COC(c3ccccc3)OC2)s1` (configuration not stated) yielded a solubility kinetic of over 50 µg/mL. `O=C(Nc1ccc2c(c1)OCCO2)C1CC(O)CN1C(=O)Nc1ccccc1` (configuration not stated) showed a solubility kinetic of over 57.5 µg/mL. Molecule `O=S(=O)(CCN1CCSCC1)c1ccccc1` has a solubility kinetic of 34.7 µg/mL (≈ 128 µM). Work on `CNc1ccc(Cl)cc1C(N)=O` yielded a solubility kinetic of over 27.7 µg/mL. In the case of `CN(C)/C=C/C(=O)c1ccc(-n2cccc2)cc1`, the solubility kinetic is reported as over 36 µg/mL. `CC1CN(C(=O)CS(=O)(=O)Cc2ccc(Cl)cc2)CC(C)O1` (configuration not stated) showed a solubility kinetic of 46.8 µg/mL (≈ 135 µM). In the case of `O=C(Nc1ccc(C(=O)O)cc1)/C(=C\c1ccco1)NC(=O)c1ccco1`, the solubility kinetic is reported as over 54.9 µg/mL. `O=C(CSc1nnc(C2CC2)n1C1CC1)c1ccccc1F` gave a solubility kinetic of over 47.6 µg/mL. With `COc1ccc(NC(=S)NCc2ccccn2)cc1OC` the solubility kinetic was over 45.5 µg/mL. `CC1NCCC2(O)CCCCC12` (configuration not stated) gave a solubility kinetic of over 25.4 µg/mL. Work on `CN(C)C(=S)Nc1cccc(C(F)(F)F)c1` yielded a solubility kinetic of 29.7 µg/mL (≈ 120 µM). Molecule `COc1ccc(C(=O)C2CCCN(Cc3cccc(C)n3)C2)c(OC)c1` (configuration not stated) has a solubility kinetic of over 53.2 µg/mL. With `C=CCNC(=O)C1CC1(c1cccc(C)c1)c1cccc(C)c1` (configuration not stated) the solubility kinetic was 1.7 µg/mL (≈ 5.57 µM). Molecule `COc1ccc(/C=C2\SC(N)=NC2=O)cc1Br` has a solubility kinetic of 5.3 µg/mL (≈ 16.9 µM). Molecule `CCOC(=O)Cc1csc(NC(=O)CN2CCCCC2)n1` has a solubility kinetic of 41.6 µg/mL (≈ 134 µM). In the case of `O=C(CNC(=O)c1ccco1)Nc1ccc(OC(F)F)cc1`, the solubility kinetic is reported as over 46.5 µg/mL. For `O=C1NC(=O)C(c2ccc(Cl)cc2)N1` (configuration not stated), the solubility kinetic was over 31.6 µg/mL. In the case of `CCC(C(=O)OCC(=O)NCc1ccc2c(c1)OCO2)c1ccccc1` (configuration not stated), the solubility kinetic is reported as 46 µg/mL (≈ 129 µM). `Cc1ccc(CNS(=O)(=O)c2ccc([N+](=O)[O-])cc2)cc1` showed a solubility kinetic of 1.8 µg/mL (≈ 5.88 µM). In the case of `O=C(CN1C(=O)NC(CCc2ccccc2)C1=O)Nc1cccc(Br)c1` (configuration not stated), the solubility kinetic is reported as 5.2 µg/mL (≈ 12.5 µM). `O=C(CCCN1CC=C(n2c(=O)[nH]c3ccccc32)CC1)c1ccc(F)cc1` gave a solubility kinetic of 33.4 µg/mL (≈ 88 µM). `O=C(Nc1ccccc1F)c1ccc2c(c1)OCO2` gave a solubility kinetic of over 38.9 µg/mL. `O=C(CSc1ncnc2sccc12)Nc1ccccc1` showed a solubility kinetic of 6.9 µg/mL (≈ 22.9 µM). In the case of `CC(NC(=O)CN1C(=O)NC2(CCCCCCC2)C1=O)c1ccccc1` (configuration not stated), the solubility kinetic is reported as over 53.6 µg/mL. `CCCCC(=O)NC(=S)Nc1cc([N+](=O)[O-])ccc1OC` gave a solubility kinetic of 0.7 µg/mL (≈ 2.25 µM). `CCOc1ccc(C(=O)CC(C(=O)O)N2CCCCC2)cc1` (configuration not stated) gave a solubility kinetic of over 45.8 µg/mL. Work on `Cc1ccc(-n2cnc3sc(C)c(C)c3c2=O)cc1` yielded a solubility kinetic of 0.8 µg/mL (≈ 2.96 µM). With `O=C(O)c1ccc(Cl)c(S(=O)(=O)N2CCCC2)c1` the solubility kinetic was over 43.5 µg/mL. Molecule `CCC(C(=O)NCCc1ccccc1)c1ccccc1` (configuration not stated) has a solubility kinetic of over 40.1 µg/mL. For `O=C(O)c1ccc(NC(=O)C2C3CCC(O3)C2C(=O)O)cc1` (configuration not stated), the solubility kinetic was over 45.8 µg/mL. `Cc1cc(C(=O)Nc2ccccc2)c2ccccc2n1` gave a solubility kinetic of 3 µg/mL (≈ 11.4 µM). With `O=C(Nc1ccccn1)c1cc(-c2cccc(Cl)c2)nc2ccccc12` the solubility kinetic was under 0.3 µg/mL.
